Reference: US8440614B2, “Polymer microspheres/nanospheres and encapsulating therapeutic proteins therein” (priority 2000, dated 2013)

What was measured:
[1] = test system: chronic diabetic BB/W or male rats; experiment: In vivo release of insulin: glucose concentration in diabetic rats; conditions: for Effect on glucose levels (in words): bled 0.5 to 16 hrs after treatment
Method: A preliminary study with SCCNC polymer nanoencapsulated insulin was conducted in diabetic rats. Three groups of four chronic diabetic BB/W or male rats were used to evaluate efficacy on nanoencapsulated insulin (MS-29). One group [A] was given 2 ml of the test formulation (MS-29) using the standard gavage method. The second group [B] received oral non-encapsulated insulin, administered by gavage at the concentration based on the animals' day of diabetes onset. A third group [C] received injected insulin (PZI, Eli Lilly) therapy at the dose consistent with their day of onset of diabetes. The animals were bled prior to treatment and at 0.5, 1, 2, 4, 8, and 16 hrs after treatment.

[2] = Antigenicity by sandwich-type capture ELISA after SCCNC treatment; assay type: binding
Method: Experiments were performed to encapsulate tetanus toxoid (TT) and diphtheria toxoid (DT) vaccine antigens in 50:50 PLGA polymer microspheres formed by SCCNC carbon dioxide and propane. In these tests, DT and TT were each separately treated with supercritical carbon dioxide with 10% (v/v) cosolvent ethanol, and near-critical propane in the presence of PLGA. The pressure and temperature were around 3,000 psig and 30-35° C. respectively. The protein and antigenicity activities were performed by micro BCA assay and a sandwich-type capture ELISA [Gupta, R. K., Siber, G. R., Alonso, M. J. and Langer, R., in Modern Approaches To New Vaccines Including Prevention of AIDS. Ed. by Ginsberg, H. S., Brown, F., Chanock, R. M. and Lerner, R. A. Cold Spring Harbor Laboratory, Press, 1993] assay.

[3] = aqueous protein; cited from earlier work
[4] = treated with SCCNC carbon dioxide/ethanol mixtures

| Substance | Percent Change in Glucose Concentration ([1]; 0.5 hr post-treatment) | Percent Change in Glucose Concentration ([1]; 1 hr post-treatment) | Percent Change in Glucose Concentration ([1]; 2 hr post-treatment) | Percent Change in Glucose Concentration ([1]; 4 hr post-treatment) | Percent Change in Glucose Concentration ([1]; 8 hr post-treatment) | Percent Change in Glucose Concentration ([1]; 16 hr post-treatment) | Effect on glucose levels (in words) [1] | ELISA (Lf/mL), antigenicity ([2]; toxoid in PLGA microspheres formed by different SCCNC, around 3,000 psig, 30-35° C.) | Antigenicity after treatment (in words) [2, 4] | Antigenicity after treatment (in words) ([2]; treated with near-critical propane) | pH levels at which the toxoid will denature [3] |
| --- | --- | --- | --- | --- | --- | --- | --- | --- | --- | --- | --- |
| Oral Insulin: oral non-encapsulated insulin, administered by gavage | +2.9% | −4.6% | −24.4% | +2.8% | +7.5% | +47.3% | only showed a statistical decrease in the level of glucose at one time point, 2 hours | – | – | – | – |
| 4: Tetanus toxoid, Control [Sample 4] | – | – | – | – | – | – | – | 9.0 Lf/mL | – | – | – |
| diphtheria toxoid | – | – | – | – | – | – | – | – | lost most of their antigenicity | did little damage | below 5.0 |
| tetanus toxoid: tetanus toxoid (TT) vaccine antigen | – | – | – | – | – | – | – | – | lost most of their antigenicity | – | below 5.0 |
| Injected Insulin: injected insulin (PZI, Eli Lilly), positive control | −47.4% | −62.7% | −71.8% | −37.9% | −48.5% | −37.6% | statistical decrease in glucose levels at all times measured post treatment | – | – | – | – |
